Values of other authors as cited in US11331266B1, “Antioxidant free, norepinephrine bitartrate injection in amber glass vials” (Medefil, Inc., priority 2020, dated 2022).

Conditions: literature, Int. J. Toxicol. 2002; 21 Suppl 2:19-94

For `COc1ccc(O)c(C(C)(C)C)c1` [butylated hydroxyl anisole], the organ damage is listed as “some renal and hepatic damage”.
